The structures appear in SMILES notation.

What all share (assay): normalised viability (% of control), CellTiter-Blue; higher = more viable cells (about 100 = DMSO control)
Holding throughout (conditions): incubation time: 72 h
On the technique in general: The colour change of resazurin is a common sign of viable cells or microbes.

Assay [1] concerns HDQ-P1. As to the method: (§1)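 DSRT, CellTiter-Blue viability, 72 h incubation. Signal is normalised to DMSO and benzethonium chloride controls. Value is the normalised response at dose 9.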
Assay [2] concerns CAL-85-1. On the procedure:
as §1

Assay [3] has as its system CAL-51. On the procedure:
as §1

Assay [4] concerns CAL-148. As to the method:
as §1

The subject of assay [5] is DU-4475. As to the method:
as §1

Assay [6] concerns MDA-MB-453. On the procedure: as §1
In assay [7] the test system is HDQ-P1. As to the method:
(§2)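 DSRT, CellTiter-Blue viability, 72 h incubation. Signal is normalised to DMSO and benzethonium chloride controls. Value is the normalised response at dose 8.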
This is another data set of the same source.

Assay [8] relates to CAL-85-1. On the procedure:
as §2
The source holds these as a separate data set.

Assay [9] deals with CAL-51. As to the method:
as §2
The source holds these as a separate data set.

Assay [10] concerns CAL-148. On the procedure: as §2
This is another data set of the same source.

The test system of assay [11] is DU-4475. As to the method: as §2
The source holds these as a separate data set.

For assay [12], the system named is MDA-MB-453. On the procedure:
as §2
This is another data set of the same source.

As to `NC(=O)Nc1cc(-c2cccc(F)c2)sc1C(=O)N[C@H]1CCCNC1` [AZD 7762] (1000 nM), the normalised viability with HDQ-P1 [1] worked out at 18%; with CAL-85-1 [2] it was 22.8%; in the assay on CAL-51 [3], 8.63%; in the assay with CAL-148 [4], 21.4%; with DU-4475 [5], 0.66%; in the assay on MDA-MB-453 [6] it was 19.6%.
On to `Cc1ccc(C(=O)N(CCCN)[C@@H](c2oc3cc(Cl)ccc3c(=O)c2Cc2ccccc2)C(C)C)cc1` (1000 nM), for which the normalised viability in the assay on HDQ-P1 [1] came out at 72.4%; in the assay with CAL-85-1 [2], 32.5%; in the assay on CAL-51 [3], 18.8%; in the assay with CAL-148 [4], 17.6%; with DU-4475 [5], 7.45%; in the assay with MDA-MB-453 [6] it was 24.6%.
Turning to `CCN(CCCOc1ccc2c(Nc3cc(CC(=O)Nc4cccc(F)c4)[nH]n3)ncnc2c1)CCOP(=O)(O)O` [Barasertib] (1000 nM), the normalised viability in the assay on HDQ-P1 [1] is 96.2%; in the assay with CAL-85-1 [2], 81.2%; with CAL-51 [3], 42%; with CAL-148 [4] it was 26.3%; in the assay with DU-4475 [5] it was 40.8%; with MDA-MB-453 [6], 44.1%.
Take `C[C@@H](Oc1cc(-c2cnn(C3CCNCC3)c2)cnc1N)c1c(Cl)ccc(F)c1Cl` [Crizotinib] (10000 nM): the normalised viability is 39.6% in the assay on HDQ-P1 [1]; 39.5% in the assay on CAL-85-1 [2]; 31.2% in the assay with CAL-51 [3]; 48.6% in the assay on CAL-148 [4]; 11.7% in the assay with DU-4475 [5]; 24.9% in the assay on MDA-MB-453 [6].
Consider `N.N.[Cl][Pt][Cl]` [Cisplatin] (10000 nM), for which the normalised viability with HDQ-P1 [1] was found to be 110%; in the assay with CAL-85-1 [2] it was 99.5%; in the assay with CAL-51 [3] it was 105%; in the assay on CAL-148 [4] it was 105%; in the assay on DU-4475 [5], 112%; with MDA-MB-453 [6] it was 97.4%.
As to `NCC(=O)CCC(=O)O` [Aminolevulinic acid] (10000 nM), the normalised viability was found to be 106% with HDQ-P1 [1]; 76.9% in the assay on CAL-85-1 [2]; 83.2% with CAL-51 [3]; 104% with CAL-148 [4]; 111% in the assay with DU-4475 [5]; 87.7% with MDA-MB-453 [6].
In the case of `CC(C)Cn1cnc2c(N)nc3ccccc3c21` [Imiquimod] (10000 nM), the normalised viability in the assay with HDQ-P1 [1] came out at 105%; in the assay on CAL-85-1 [2], 100%; in the assay on CAL-51 [3], 92%; in the assay with CAL-148 [4] it was 99%; with DU-4475 [5], 109%; in the assay with MDA-MB-453 [6], 75.2%.
On to `C[C@]12CC[C@@H]3c4ccc(O)cc4C[C@@H](CCCCCCCCC[S+]([O-])CCCC(F)(F)C(F)(F)F)[C@H]3[C@@H]1CC[C@@H]2O` (stereo partly drawn) [Fulvestrant] (10000 nM), for which the normalised viability in the assay on HDQ-P1 [1] was 113%; with CAL-85-1 [2], 99.3%; in the assay with CAL-51 [3] it was 101%; in the assay on CAL-148 [4] it was 102%; with DU-4475 [5], 115%; with MDA-MB-453 [6], 66.8%.
Consider `CC(=O)Nc1ccc(C(=O)Nc2ccccc2N)cc1` [CI-994] (1000 nM), for which the normalised viability was 108% in the assay with HDQ-P1 [1]; 98.5% with CAL-85-1 [2]; 95.3% in the assay with CAL-51 [3]; 96.2% in the assay with CAL-148 [4]; 80.7% with DU-4475 [5]; 101% in the assay with MDA-MB-453 [6].
`CCC1=C[C@@H]2CN(C1)Cc1c([nH]c3ccccc13)[C@@](C(=O)OC)(c1cc3c(cc1OC)N(C)[C@H]1[C@@](O)(C(=O)OC)[C@H](OC(C)=O)[C@]4(CC)C=CCN5CC[C@]31[C@@H]54)C2` [Vinorelbine] (3000 nM): the normalised viability with HDQ-P1 [7] is 32.7%; with CAL-85-1 [8], 37.1%; with CAL-51 [9], 16.6%; in the assay with CAL-148 [10], 20.1%; with DU-4475 [11], 15.8%; with MDA-MB-453 [12] it was 39.8%.
With `C[C@@H](Oc1cc(-c2cnn(C3CCNCC3)c2)cnc1N)c1c(Cl)ccc(F)c1Cl` [Crizotinib] (3000 nM), the normalised viability in the assay on HDQ-P1 [7] was 86.7%; in the assay on CAL-85-1 [8], 66.1%; in the assay with CAL-51 [9], 62.9%; with CAL-148 [10] it was 76.8%; in the assay on DU-4475 [11] it was 78.7%; in the assay on MDA-MB-453 [12], 57.3%.
In the case of `O=C1CCC(N2C(=O)c3ccccc3C2=O)C(=O)N1` (stereo not drawn) [Thalidomide] (3000 nM), the normalised viability with HDQ-P1 [7] was 99.7%; in the assay on CAL-85-1 [8], 91.7%; in the assay on CAL-51 [9], 89.8%; in the assay on CAL-148 [10] it was 113%; in the assay on DU-4475 [11], 110%; in the assay on MDA-MB-453 [12] it was 99.4%.
With `Cc1ccc(C(=O)N(CCCN)[C@@H](c2oc3cc(Cl)ccc3c(=O)c2Cc2ccccc2)C(C)C)cc1` (300 nM), the normalised viability is 62.6% in the assay on HDQ-P1 [7]; 32.4% with CAL-85-1 [8]; 26.7% with CAL-51 [9]; 16.8% with CAL-148 [10]; 31.2% with DU-4475 [11]; 24.8% in the assay with MDA-MB-453 [12].

The values are drawn from the supplement of paper PMC4862054.
